Measurements from patent publication US20080167571A1, “DETERMINATION OF TREATMENT RESULTS PRIOR TO TREATMENT OR AFTER FEW TREATMENT EVENTS” (priority 2006, published 2008).

What was measured:
[1] = Neuropsychological and neurophysiological testing of AEDs, double-blind randomized two period crossover; type: in vivo, healthy adult volunteers
Excerpt: The purpose of the underlying study was to evaluate the neuropsychological and neurophysiological effects of the AED carbamazepine (CBZ), and the AED levitiracetam (LEV) in healthy subjects, employing a double-blind, two period crossover design (Meador et al., 2007). In accordance with the present invention, data at non-drug baseline sessions predicted which subjects would have the most negative effects of CBZ.
A total of 28 healthy adult volunteers without history of neurological or psychiatric diseases completed the protocol (17 women; 11 men; mean age=33 years, range=18-51). All subjects remained free of centrally active prescription medications throughout the study.
The study employed a double-blind, randomized, two period crossover design. Subjects were screened and tested at the non-drug baseline.
Subsequently, they were randomly assigned to receive either AED. Each AED was administered over eight weeks, which included a titration period and a one month maintenance period. Each AED treatment period was followed by a four day taper and a washout period for the remainder of the four weeks. Then, subjects were treated with the other AED for eight weeks followed by a final four week washout period.
CBZ was given at 200 mg/day for the first week, 200 mg/day bid for the 2nd week, then adjusted to midrange anticonvulsant blood levels (ABLs) at tid dosages. LEV was begun at 500 mg/day for two weeks, then increased to 500 mg bid for two weeks, then increased to 1000 mg bid.
Subjects underwent neuropsychological and neurophysiological testing on six occasions (i.e., two AED conditions and four non-drug conditions) over 25 weeks. Test sessions occurred at week one before drug administration, at week nine after four weeks of titration and maintenance on the first drug for four weeks, at week 21 after 4 weeks of wash out, 4 weeks of titration on drug 2 and 4 weeks maintenance on drug 2, and at week 25 after 4 weeks of washout.
Patient data was obtained in accordance with procedures set forth in U.S. Pat. Nos. 6,947,790; 6,434,419 and 5,295,491; in this embodiment EEG data was obtained simultaneously with the subject taking a test battery of attention demanding tasks, for example a set of psychometric tasks.
Data was obtained from a verbal episodic memory task consisting of a word presentation phase, during which subjects had to indicate whether each word contained 1 or 2 syllables, and a delayed recognition phase in which subjects had to indicate whether each word had been presented earlier. A working memory task was presented in between these two phases, and acted as a distracter task. During the first repetition of this sequence, the working memory task was a low-load 1-back task, and during the second repetition, the working memory task was a high-load 2-back task. A number of standard neuropsychological and subjective rating scales were also administered. Test sessions lasted about an hour.

[2] = Post-drug EEG and subjective scale measures (LDA neurocognitive drug response score); type: in vivo, healthy adult volunteers; conditions: post-drug vs non-drug baseline
Excerpt: Using the data and methods described in Example 1, we determined how a combination of post-drug EEG and the subject's subjective scale measures quantifies the response to carbamazepine. Accordingly, a stepwise linear discriminant analysis (LDA) was used to generate a neurocognitive drug response score for each subject, reflecting the magnitude of neurocognitive response to the drug as compared with the non-drug baseline. The sensitivity and specificity in detecting the effect of the drug were both 100%. Three variables were used in the LDA, of which two were EEG and one was a subjective scale measure. The EEG variables were occipito-parietal 2-10 Hz EEG power in all tasks (relative weight 0.6) which increased consequent to CBZ, peak alpha frequency in all tasks (relative weight 0.3) which decreased consequent to CBZ, and self-reported fatigue rating on the Profile of Mood Scale (POMS, Jacobson et al., 1978) (relative weight 0.3) which increased consequent to CBZ.

[3] = Symbol Digits Modality Test (SDMT) after taking CBZ; type: in vivo, healthy adult volunteers
Excerpt: The SDMT is a standard neuropsychological test of “executive function” and includes complex scanning, visual tracking, and agility components. These non-drug baseline values of task performance, EEG, and evoked potential variables that were most sensitive to the effects of CBZ were used as candidate independent predictor variables. Stepwise multiple linear regression analysis was used to identify which of these candidate independent predictor variables at baseline best predicted the change in the SDMT after taking CBZ.

[4] = EEG with 1-back working memory task during methylphenidate dose titration in pediatric ADHD; type: in vivo, patients diagnosed with ADHD
Experimental: Fourteen patients diagnosed with ADHD and clinically classified by a physician specialist in ADHD as MPH-responders (patients who would benefit from taking MPH) completed the protocol (11 males, 3 females; age range 8-18, mean 11.3, standard deviation 3.1). All patients weighed more than 25 kg.
Patients received one week each of placebo (0 mg), 5 mg, 10 mg, 15 mg, and 20 mg daily doses of MPH for a total of five weeks, according to a fully counterbalanced, placebo-controlled, double-blind design. In this example EEG data was obtained concurrent with selected attention demanding tasks. […] Accordingly, an EEG computer-based examination was obtained simultaneously with the subject taking a test battery of attention demanding tasks, for example a set of psychometric tasks. Such data was obtained once a week, 1-3 hours post-ingestion of the prescribed dose for that week. Examinations were administered approximately the same time of day and on the same day of the week during the dose titration period. The protocol used in this study included a low-load simple reaction time task (SRT) task and a higher-load 1-back working memory (WM) task in sessions lasting about half an hour.
Analysis focused on the 1-back working memory task whose performance and EEG signals were most affected by MPH A divergence-based multivariate feature selection and pattern classification algorithm (for convenience called the neuroworkload meter—Gevins and Smith, 2003; Smith, Gevins, et al, 2001) was employed to choose and weight an optimal subset of features to characterize the MPH response.
A set of candidate 1-back WM performance and attention-sensitive EEG features most affected by varying MPH doses was selected based on the prior statistical analyses of the average of the MPH doses followed by visual inspection of the grand averaged EEG power spectra and evoked potential data. Feature subsets were limited to a maximum of four variables because of the small number of subjects in the experiment. […]

[5] = in vivo; cited from earlier work

NC(=O)N1c2ccccc2C=Cc2ccccc21 [CBZ, carbamazepine]
variables worse compared to the non-drug average ([1]; CBZ 36 of 55, LEV 4 of 33): 65% | low frequency (<10 Hz) EEG power ([1]; after one month maintenance): increase | occipito-parietal 2-10 Hz EEG power in all tasks [2]: increased | peak alpha frequency in all tasks [2]: decreased | self-reported fatigue rating on the Profile of Mood Scale (POMS) [2]: increased | subjects with a decline in SDMT score of at least 15% ([3]; 28 subjects): Six of the 28 subjects | average decline in SDMT ([3]; actual, across the 28 subjects, p<0.0003): 6.7%

CC[C@@H](C(N)=O)N1CCCC1=O [LEV, levetiracetam]
untoward neuropsychological and neurophysiological effects ([1]; in vivo): fewer untoward neuropsychological and neurophysiological effects than did CBZ | variables with significant differences between the AEDs, all in favor of LEV ([1]; in vivo): 42% | variables worse compared to the non-drug average ([1]; in vivo): 12%

COC(=O)C(c1ccccc1)C1CCCCN1 (stereo not drawn) [MPH, methylphenidate]
dose-response relationship across patients ([4]; 0, 5, 10, 15, 20 mg daily, one week each): did not reveal any systematic dose-response relationship | effect size (Cohen's d) of four-variable equation score ([4]; 20 mg vs placebo): 2.12 | effect size (Cohen's d), dose with the highest score vs placebo ([4]; two-dose test analysis): 3.43

CC1(C)O[C@@H]2[C@@H](CO[C@@]3(COS(N)(=O)=O)OC(C)(C)O[C@@H]23)O1 [topiramate]
2-6 Hz EEG power [5]: increased | working memory task performance [5]: adversely affected
